We go through 30 compounds from patent publication US10703757B2, “Compounds and methods for CDK8 modulation and indications therefor” (Plexxikon Inc., priority 2016, dated 2020).

Assay [1] concerns CDK8 (TCF/LEF luciferase reporter in HCT116 cells). Put plainly: Cell based TCF/LEF reporter assay (HCT116+TCF/LEF luciferase). Conditions: Homo sapiens, HCT-116, 24 h. Summed up:
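Luciferase readout was corrected for viability (CellTiter-Fluor) and scaled between DMSO high and 10 uM CCT251545 low controls, giving IC50 by nonlinear regression. Compounds, serially diluted, were incubated 24 h at 37 °C on HCT116 clones stably expressing a TCF/LEF-driven luciferase reporter.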

Assay [2] relates to CDK8 (phosphorylation of STAT1 at serine 727 in A549 cells). Put plainly: Cell based Phospho-STAT1 assay (IFNγ-stimulated A549 cells, AlphaLISA). The note with it: Homo sapiens, A549, A549 cells, phospho-STAT1 after IFNγ stimulation. A digest of the protocol:
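A549 cells given serial compound dilutions for 1 h at 37 °C, then stimulated with IFNγ at 10 ng/mL final for 30 min. Lysate STAT1 Ser727 phosphorylation measured by AlphaLISA; % inhibition vs stimulated/unstimulated DMSO controls, IC50 by nonlinear regression.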
Background: Bead proximity is the source of the signal in Alpha formats.

Each structure is given as a SMILES string.

Turning to `COc1ccc2cc(-c3cnc4[nH]ccc4c3N3CCC(C#N)CC3)ccc2n1` [Compound P-0221, 1-(5-(2-methoxyquinolin-6-yl)-1H-pyrrolo[2,3-b]pyridin-4-yl)piperidine-4-carbonitrile], the IC50 in assay [1] and in assay [2] was 0.1 to 100 nM throughout.
In the case of `CNC(=O)c1ccc2cc(-c3cnn4cccc(C#CC(C)(C)O)c34)ccc2c1` [Compound P-0222, 6-(4-(3-hydroxy-3-methylbut-1-yn-1-yl)pyrazolo[1,5-a]pyridin-3-yl)-N-methyl-2-naphthamide], the IC50 in assay [1] and in assay [2] was 0.1 to 100 nM throughout.
In the case of `Cc1ccc2cc(-c3cnn4cccc(C5=CCC(C#N)CC5)c34)ccc2n1` (stereo not drawn) [Compound P-0223, 4-(3-(2-methylquinolin-6-yl)pyrazolo[1,5-a]pyridin-4-yl)cyclohex-3-ene-1-carbonitrile], the half-maximal inhibitory concentration (IC50) in assay [1] and in assay [2] was 0.1 to 100 nM in each case.
On to `N#CC1CC=C(c2cccn3ncc(-c4ccc(-n5ccnn5)cc4)c23)CC1` (stereo not drawn) [Compound P-0224, 4-(3-(4-(1H-1,2,3-triazol-1-yl)phenyl)pyrazolo[1,5-a]pyridin-4-yl)cyclohex-3-ene-1-carbonitrile], for which the IC50 in assay [1] and in assay [2] was 0.1 to 100 nM throughout.
For `N#CC1CC=C(c2cccn3ncc(-c4ccc(-n5cccn5)cc4)c23)CC1` (stereo not drawn) [Compound P-0225, 4-(3-(4-(1H-pyrazol-1-yl)phenyl)pyrazolo[1,5-a]pyridin-4-yl)cyclohex-3-ene-1-carbonitrile], the IC50 in assay [1] and in assay [2] was 0.1 to 100 nM throughout.
As for `Cn1ccc(-c2ccc(-c3cnn4cccc(C#CC(C)(C)O)c34)cc2)n1` [Compound P-0226, 2-methyl-4-(3-(4-(1-methyl-1H-pyrazol-3-yl)phenyl)pyrazolo[1,5-a]pyridin-4-yl)but-3-yn-2-ol], the IC50 in assay [1] and in assay [2] was 0.1 to 100 nM in each case.
Turning to `CC(C)(O)C#Cc1cccn2ncc(-c3ccc(-c4cnoc4)cc3)c12` [Compound P-0228, 4-(3-(4-(isoxazol-4-yl)phenyl)pyrazolo[1,5-a]pyridin-4-yl)-2-methylbut-3-yn-2-ol], the 50% inhibitory concentration (IC50) in assay [1] and in assay [2] was 1000 to 10000 nM in each case.
For `CC(C)(O)C#Cc1cccn2ncc(-c3ccc(-c4cn[nH]c4)cc3)c12` [Compound P-0229, 4-(3-(4-(1H-pyrazol-4-yl)phenyl)pyrazolo[1,5-a]pyridin-4-yl)-2-methylbut-3-yn-2-ol], the 50% inhibitory concentration (IC50) in assay [1] and in assay [2] was 0.1 to 100 nM in each case.
As to `Cc1c(-c2ccc(-c3cnn4cccc(C#CC(C)(C)O)c34)cc2)cnn1C` [Compound P-0230, 4-(3-(4-(1,5-dimethyl-1H-pyrazol-4-yl)phenyl)pyrazolo[1,5-a]pyridin-4-yl)-2-methylbut-3-yn-2-ol], the IC50 in assay [1] and in assay [2] was 0.1 to 100 nM throughout.
In the case of `Cc1cncc(-c2ccc(-c3cnn4cccc(C#CC(C)(C)O)c34)cc2)c1` [Compound P-0231, 2-methyl-4-(3-(4-(5-methylpyridin-3-yl)phenyl)pyrazolo[1,5-a]pyridin-4-yl)but-3-yn-2-ol], the IC50 in assay [1] and in assay [2] was 100 to 1000 nM in each case.
As to `CCn1cc(-c2ccc(-c3cnn4cccc(C#CC(C)(C)O)c34)cc2)cn1` [Compound P-0232, 4-(3-(4-(1-ethyl-1H-pyrazol-4-yl)phenyl)pyrazolo[1,5-a]pyridin-4-yl)-2-methylbut-3-yn-2-ol], the IC50 in assay [1] and in assay [2] was 0.1 to 100 nM each time.
`Cc1ccncc1-c1ccc(-c2cnn3cccc(C#CC(C)(C)O)c23)cc1` [Compound P-0233, 2-methyl-4-(3-(4-(4-methylpyridin-3-yl)phenyl)pyrazolo[1,5-a]pyridin-4-yl)but-3-yl-2-ol]: the results for the IC50 in assay [1] and in assay [2] were 100 to 1000 nM and 1000 to 10000 nM, respectively.
The corresponding values for `Cc1cc(-c2ccc(-c3cnn4cccc(C#CC(C)(C)O)c34)cc2)n[nH]1` [Compound P-0234, 2-methyl-4-(3-(4-(5-methyl-1H-pyrazol-3-yl)phenyl)pyrazolo[1,5-a]pyridin-4-yl)but-3-yl-2-ol] are 0.1 to 100 nM and 100 to 1000 nM.
The corresponding values for `Cc1cc(C#N)cc(-c2ccc(-c3cnn4cccc(C#CC(C)(C)O)c34)cc2)c1` [Compound P-0235, 4′-(4-(3-hydroxy-3-methylbut-1-yn-1-yl)pyrazolo[1,5-a]pyridin-3-yl)-5-methyl-[1,1′-biphenyl]-3-carbonitrile] are 100 to 1000 nM and 100 to 1000 nM.
The corresponding values for `CC(C)(O)C#Cc1cccn2ncc(-c3ccc(-c4cccnc4)cc3)c12` [Compound P-0237, 2-methyl-4-(3-(4-(pyridin-3-yl)phenyl)pyrazolo[1,5-a]pyridin-4-yl)but-3-yn-2-ol] are 0.1 to 100 nM and 0.1 to 100 nM.
`Cn1cc(C#Cc2cnc3cccc(N4CCC5(CC4)CC(=O)NC5=O)n23)cn1` [Compound P-0238, 8-(3-((1-methyl-1H-pyrazol-4-yl)ethynyl)imidazo[1,2-a]pyridin-5-yl)-2,8-diazaspiro[4.5]decane-1,3-dione]: the IC50 in assay [1] and in assay [2] was 0.1 to 100 nM in each case.
In the case of `CC(=O)C1CCN(c2cccc3ncc(C#Cc4cnn(C)c4)n23)CC1` [Compound P-0240, 1-(1-(3-((1-methyl-1H-pyrazol-4-yl)ethynyl)imidazo[1,2-a]pyridin-5-yl)piperidin-4-yl)ethan-1-one], the half-inhibitory concentration (IC50) in assay [1] and in assay [2] was 1000 to 10000 nM in each case.
As to `Cn1cc(C#Cc2cnc3cccc(N4CCC(C(N)=O)C4)n23)cn1` (stereo not drawn) [Compound P-0241, 1-(3-((1-methyl-1H-pyrazol-4-yl)ethynyl)imidazo[1,2-a]pyridin-5-yl)pyrrolidine-3-carboxamide], the IC50 in assay [1] and in assay [2] was 100 to 1000 nM each time.
On to `COc1ccc2cc(-c3cnn4cccc(C5=CCC(C#N)CC5)c34)ccc2n1` (stereo not drawn) [Compound P-0242, 4-(3-(2-methoxyquinolin-6-yl)pyrazolo[1,5-a]pyridin-4-yl)cyclohex-3-ene-1-carbonitrile], for which the concentration for half-maximal inhibition (IC50) in assay [1] and in assay [2] was 0.1 to 100 nM in each case.
Take `N#CC1CC=C(c2c(-c3ccc4c(c3)CNC4=O)cnc3[nH]ccc23)CC1` (stereo not drawn) [Compound P-0244, 4-(5-(1-oxoisoindolin-5-yl)-1H-pyrrolo[2,3-b]pyridin-4-yl)cyclohex-3-ene-1-carbonitrile]: the concentration for half-maximal inhibition (IC50) in assay [1] and in assay [2] was 100 to 1000 nM throughout.
For `Cn1cc(-c2ccc(-c3cnn4cccc(C#CCOCCO)c34)cc2)cn1` [Compound P-0245, 2-((3-(3-(4-(1-methyl-1H-pyrazol-4-yl)phenyl)pyrazolo[1,5-a]pyridin-4-yl)prop-2-yn-1-yl)oxy)ethan-1-ol], the 50% inhibitory concentration (IC50) in assay [1] is 100 to 1000 nM; in assay [2], 0.1 to 100 nM.
For `Cn1cc(-c2ccc(-c3cnn4cccc(C#C[C@@](C)(O)c5ccccc5)c34)cc2)cn1` [Compound P-0246, (S)-4-(3-(4-(1-methyl-1H-pyrazol-4-yl)phenyl)pyrazolo[1,5-a]pyridin-4-yl)-2-phenylbut-3-yn-2-ol] the same measures were 100 to 1000 nM and 0.1 to 100 nM.
The corresponding values for `Cn1cc(-c2ccc(-c3cnn4ccnc(C5CCC(C(N)=O)CC5)c34)cc2)cn1` (stereo not drawn) [Compound P-0247, 4-(3-(4-(1-methyl-1H-pyrazol-4-yl)phenyl)pyrazolo[1,5-a]pyrazin-4-yl)cyclohexane-1-carboxamide] are 0.1 to 100 nM and 0.1 to 100 nM.
The corresponding values for `Cn1cc(-c2ccc(-c3cnn4cccc(N5C6CCC5CC(C#N)C6)c34)cc2)cn1` (stereo not drawn) [Compound P-0248, 8-(3-(4-(1-methyl-1H-pyrazol-4-yl)phenyl)pyrazolo[1,5-a]pyridin-4-yl)-8-azabicyclo[3.2.1]octane-3-carbonitrile] are 0.1 to 100 nM and 0.1 to 100 nM.
As for `Cc1ccn2ncc(-c3ccc(-c4cnn(C)c4)cc3)c2c1C1=CCC(C#N)CC1` (stereo not drawn) [Compound P-0250, 4-[5-methyl-3-[4-(1-methylpyrazol-4-yl)phenyl]pyrazolo[1,5-a]pyridin-4-yl]cyclohex-3-ene-1-carbonitrile], the IC50 in assay [1] and in assay [2] was 0.1 to 100 nM each time.
On to `N#CC1CCN(c2cccn3ncc(-c4cccc(OCC(F)(F)F)c4)c23)CC1` [Compound P-0251, 1-(3-(3-(2,2,2-trifluoro-ethoxy)phenyl)pyrazolo[1,5-a]pyridin-4-yl)piperidine-4-carbonitrile], for which the concentration for half-maximal inhibition (IC50) in assay [1] and in assay [2] was 1000 to 10000 nM in each case.
Take `N#CC1CCN(c2cccn3ncc(-c4cccc(OCc5ccccc5)c4)c23)CC1` [Compound P-0252, 1-(3-(3-(benzyloxy)phenyl)pyrazolo[1,5-a]pyridin-4-yl)piperidine-4-carbonitrile]: the IC50 in assay [1] and in assay [2] was 1000 to 10000 nM in each case.
`Cc1cc(C)n(-c2ccc(-c3cnn4cccc(N5CCC(C#N)CC5)c34)cc2)n1` [Compound P-0253, 1-(3-(4-(3,5-dimethyl-1H-pyrazol-1-yl)phenyl)pyrazolo[1,5-a]pyridin-4-yl)piperidine-4-carbonitrile]: the half-inhibitory concentration (IC50) in assay [1] and in assay [2] was 100 to 1000 nM throughout.
Regarding `CC(C)(C)C(=O)Nc1ccc(-c2cnn3cccc(N4CCC(C#N)CC4)c23)cc1` [Compound P-0254, N-(4-(4-(4-cyanopiperidin-1-yl)pyrazolo[1,5-a]pyridin-3-yl)phenyl)pivalamide], the IC50 in assay [1] and in assay [2] was 100 to 1000 nM in each case.
Regarding `N#CC1CCN(c2cccn3ncc(-c4ccc(S(=O)(=O)N5CCOCC5)cc4)c23)CC1` [Compound P-0255, 1-(3-(4-(morpholino-sulfonyl)phenyl)pyrazolo[1,5-a]pyridin-4-yl)piperidine-4-carbonitrile], the concentration for half-maximal inhibition (IC50) in assay [1] and in assay [2] was 1000 to 10000 nM throughout.

In general, IC50 refers to the concentration at which inhibition is half-maximal. Low readings indicate greater potency, high ones weaker potency.
